Experimental data from ChEMBL document CHEMBL5252594.
Calls of active or inactive are those of the source.

Assays:
Type in all cases: functional, organism-based
[1] = system: Aedes aegypti; test: Larvicidal activity against Aedes aegypti Rockefeller strain L3 Larvae assessed as mortality at 90 ug/ml measured after 72 hrs; details: dose 90.0 µg/ml
[2] = system: Aedes aegypti; test: Larvicidal activity against Aedes aegypti Rockefeller strain L3 Larvae assessed as mortality at 150 ug/ml measured after 72 hrs; details: dose 150.0 µg/ml
[3] = system: Aedes aegypti; test: Larvicidal activity against Aedes aegypti Rockefeller strain L3 Larvae assessed as mortality at 90 ug/ml measured after 48 hrs; details: dose 90.0 µg/ml
[4] = system: Aedes aegypti; test: Larvicidal activity against Aedes aegypti Rockefeller strain L3 Larvae assessed as mortality at 90 ug/ml measured after 24 hrs; details: dose 90.0 µg/ml
[5] = system: Aedes aegypti; test: Larvicidal activity against Aedes aegypti Rockefeller strain L3 Larvae assessed as mortality at 150 ug/ml measured after 24 hrs; details: dose 150.0 µg/ml
[6] = system: Aedes aegypti; test: Larvicidal activity against Aedes aegypti Rockefeller strain L3 Larvae assessed as mortality at 150 ug/ml measured after 48 hrs; details: dose 150.0 µg/ml

Measured: Activity

O=C(/C=C/c1ccc(O)c(O)c1)O[C@@H]1C[C@](O)(C(=O)O)C[C@@H](OC(=O)/C=C/c2ccc(O)c(O)c2)[C@H]1O
inactive: all assays above
